Data published in PMC5617977, “Antibacterial Activity and Toxicity of Analogs of Scorpion Venom IsCT Peptides” (Antibiotics, 2017).
“Also recorded” adds a separate entry of the source. Where no end group is shown, it is not given here.

Experiments:
[1] = tested on: Bacillus cereus (ATCC# 11778); experiment: Antibacterial activity, standard broth (liquid) dilution; assay type: cell-based; details: for MIC B. cereus: Luria Bertani broth, peptide 1, 10, 50, 100 μg/mL, 37 °C, 24 h, absorbance 600 nm, MIC interpolated at 0% bacterial growth, average of three independent experiments
Method: (§1) Antimicrobial activities were determined by standard broth dilution against two Gram-positive and three Gram-negative bacteria. In general, the MICs seem to be higher than the concentrations tested in our experiments (Table 3). Only Staphylococcus aureus and Escherichia coli seem to be inhibited with both natural peptides but also by the leucine substituted analogue, IsCT1L1, at concentrations lower than 25 μg/mL. […] Curiously, some peptides—such as IsCT1V1, IsCT1E7, or even natural IsCT1—when tested with Bacillus cereus show significant bacteria growth inhibition at concentrations lower than 10 μg/mL.
(§2) Two Gram-positive bacteria: Staphylococcus aureus (ATCC# 29213) and Bacillus cereus (ATCC# 11778); and three Gram-negative bacteria: Salmonella typhimurium (ATCC# 14028), Enterobacter aerogenes (ATCC# 13048), and Escherichia coli (ATCC# 25922) were tested.
(§3) Activity was determined by the standard liquid dilution method described previously. All results are the average of three independent experiments. Briefly, cells were grown overnight at 37 °C in Luria Bertani broth and diluted in the same medium for assays. Bacteria were added to serial dilutions of the peptides (final concentrations of 1, 10, 50, and 100 μg/mL) and incubated at 37 °C for 24 h. Cell growth was measured by UV absorbance at 600 nm. For each bacterium, a solution containing no peptide (concentration 0 μg/mL) was processed under identical conditions and used as control for 100% bacterial growth. MICs were obtained from interpolation of 0% bacterial growth from plots. Results are the average of three independent experiments.

[2] = tested on: Enterobacter aerogenes (ATCC# 13048); experiment: as above; assay type: cell-based; details: Luria Bertani broth, peptide 1, 10, 50, 100 μg/mL, 37 °C, 24 h, absorbance 600 nm; MIC interpolated at 0% bacterial growth; average of three independent experiments
Method: as §1, §2, §3

[3] = tested on: Escherichia coli (ATCC# 25922); experiment: as above; assay type: cell-based; details: Luria Bertani broth, peptide 1, 10, 50, 100 μg/mL, 37 °C, 24 h, absorbance 600 nm; MIC interpolated at 0% bacterial growth; average of three independent experiments
Method: as §1, §2, §3

[4] = tested on: Salmonella typhimurium (ATCC# 14028); experiment: as above; assay type: cell-based; details: Luria Bertani broth, peptide 1, 10, 50, 100 μg/mL, 37 °C, 24 h, absorbance 600 nm; MIC interpolated at 0% bacterial growth; average of three independent experiments
Method: as §1, §2, §3

[5] = tested on: Staphylococcus aureus (ATCC# 29213); experiment: as above; assay type: cell-based; details: Luria Bertani broth, peptide 1, 10, 50, 100 μg/mL, 37 °C, 24 h, absorbance 600 nm; MIC interpolated at 0% bacterial growth; average of three independent experiments
Method: as §1, §2, §3

human erythrocytes = experiment: Hemolytic activity; assay type: cell-based; details: 1% human erythrocytes in 1× PBS, peptide 1, 10, 50, 100 μg/mL, 37 °C, 1 h, hemoglobin at 416 nm, 100% control 1% TritonX-100; average of two independent experiments
Method: Hemolytic activity was carried out as described previously. Briefly, serial concentrations of peptides (final concentrations of 0 as blank, 1, 10, 50, and 100 μg/mL) were added to 1% human erythrocytes in 1× PBS buffer. The cell suspensions were incubated at 37 °C for 1 h and then centrifuged to remove unlysed erythrocytes. Released hemoglobin was determined spectrophotometrically at 416 nm. The control for 100% release of hemoglobin was a sample of 1% erythrocyte incubated in PBS with 1% TritonX-100. Results are the average of two independent experiments.

[6] = tested on: Pseudomonas aeruginosa and Proteus mirabilis; details: printed as 100 or more than 200; ref Dai [21]; cited from earlier work
Method: (§4) Studies of bacterial inhibition carried out by Dai with IsCT1 and IsCT2 natural peptides show a range of MICs of 1 to 5 μg/mL for different strains of S. aureus and 10 to 25 μg/mL for two strains of Bacillus. For Gram-negative bacteria, they show 5 to 120 μg/mL for two strains of E. coli but 100 or more than 200 μg/mL for other strains of Gram-negative bacteria (Pseudomonas aeruginosa and Proteus mirabilis). Bacterial inhibition studies by Kim with IsCT show MICs of 6 μg/mL for E. coli and 3 μg/mL for S. aureus and, for the IsCT1K7 analog, the reported concentrations are 3 and 1.5 μg/mL ...

E. coli = details: ref Kim [16]; cited from earlier work
Method: as §4

S. aureus = details: ref Kim [16]; cited from earlier work
Method: as §4

Substance	MIC B. cereus [1]	MIC E. aerogenes [2]	MIC E. coli [3]	MIC S. typhimurium [4]	MIC S. aureus [5]	Hemolytic activity (in words) (human erythrocytes)	MIC, other Gram-negative strains (Pseudomonas aeruginosa and Proteus mirabilis) [6]	concentration showing significant bacteria growth inhibition, Bacillus cereus ([1]; inhibition at low concentration, then plateau or slight increase of growth at higher concentrations (Figure S2))	MIC E. coli (E. coli)	MIC S. aureus (S. aureus)
IFGAIWNGIKSLF-NH2 [IsCT2, reference compound]	100 µg/mL	>100 µg/mL	50 µg/mL	100 µg/mL	50 µg/mL	highest hemolytic activity	≥ 100 µg/mL			
ILGAAWNGAKSLF-NH2 [IsCT2A1, alanine substituted (positions 5 and 9) analog of IsCT2]	>100 µg/mL	>100 µg/mL	>100 µg/mL	>100 µg/mL	>100 µg/mL					
ILGAVWNGVKSLF-NH2 [IsCT2V1, valine substituted (positions 5 and 9) analog of IsCT2]	>100 µg/mL	>100 µg/mL	>100 µg/mL	>100 µg/mL	>100 µg/mL					
ILGKAWEGAKSLF-NH2 [IsCT1A1]	>100 µg/mL	>100 µg/mL	>100 µg/mL	>100 µg/mL	>100 µg/mL					
ILGKIWEGIESLF-NH2 [IsCT1E7]	>100 µg/mL	>100 µg/mL	>100 µg/mL	>100 µg/mL	>100 µg/mL	no toxicity at all; also recorded: do not have any apparent citotoxicity; also recorded: no apparent cytotoxicity				
ILGKIWEGIKSLF-NH2 [IsCT1, reference compound]	>100 µg/mL	>100 µg/mL	50 µg/mL	100 µg/mL	50 µg/mL	highest hemolytic activity	≥ 100 µg/mL	lower than 10 μg/mL	6 µg/mL	3 µg/mL
ILGKIWKGIKSLF-NH2 [IsCT1K7]	>100 µg/mL	>100 µg/mL	>100 µg/mL	100 µg/mL	100 µg/mL	highest hemolytic activity				
ILGKLWEGLKSLF-NH2 [IsCT1L1]	>100 µg/mL	>100 µg/mL	50 µg/mL	100 µg/mL	50 µg/mL	highest hemolytic activity; also recorded: toxicity similar to the wild type peptides				
ILGKVWEGVKSLF-NH2 [IsCT1V1]	>100 µg/mL	>100 µg/mL	>100 µg/mL	>100 µg/mL	>100 µg/mL					
